Assay results: patent publication US20200054271A1, “COMPUTER-BASED LIVER MODEL” (priority 2017, published 2020)

How the values were obtained:
[1] = from the literature; cited from earlier work
[2] = test system: bile canaliculi (BC) network; assay: BC network geometry (BC radius) from 3D reconstruction of CD13-stained fixed liver tissue sections; type: in vivo, mouse
Method: (§1) As controls, mice were administered 0.9% saline.
All steps were performed at room temperature.
Fixed tissue was imaged with a Zeiss laser scanning microscope 780 NLO using a 63×1.3 numerical aperture (NA) glycerol immersion objective (Zeiss), a Chameleon Ti-Sapphire 2-photon laser (780 nm), 488 and 561 laser lines and Gallium arsenide phosphide (GaAsp) detectors.
3D reconstructions of the BC network were performed on high-resolution IF image stacks of fixed liver tissue stained for the apical marker CD13 (voxel size: 0.28×0.28×0.3 μm, 70-80 μm in depth). A tile of 2×1 image stacks was stitched to cover an entire CV-PV axis. Images were processed, analyzed and reconstructed using the software MotionTracking as described in (Morales-Navarrete et al., 2015). In brief, images were segmented using a local thresholding algorithm (maximum entropy), segmented objects were corrected for artefacts using standard morphological operations (opening/closing) and the triangulation mesh of the segmented surfaces was generated by the cube marching algorithm. The active mesh was tuned to align the triangle mesh vertexes to the maximum gradient of fluorescence intensity in the original image. A representation of the skeletonized image was generated using a 3D graph describing the geometrical and topological features of the BC network. For the spatial analysis of BC radius, porosity and network density, the CV-PV axis was computationally divided into 20 equidistant zones based on the distance dof each position x from the CV (dCV) and PV (dPV):
Then, the average radius and porosity was determined per zone. For the radius, the minimal distance of each node of the central line of the BC network was quantified in the xy-plane. For the BC network density, the network length per tissue volume was calculated. For the tissue porosity, […]

[3] = test system: bile flow in the BC network; assay: Bile velocity and apical CF transport by intravital microscopy (IVM) of CF(DA) transport with 3-compartment model; type: in vivo, mouse
Method: as §1
The objective was heated to 37° C.
Quantification of the CF intensity in the hepatocyte cytoplasm and BC from IVM movies was performed using the image analysis software MotionTracking. Following correction for shift, IVM movies contained 16-21 frames per stack, covering 15-20 μm in z. To avoid liver damage from photo-toxicity, IVM movies were acquired with minimum laser intensities resulting in low signal-to-noise ratio. […] Therefore, we used the modified Mean-Shift algorithm to separate the CF fluorescence from the background. The result of the background/foreground discrimination was checked manually. The BC were detected in three steps. First, the image was convolved with Laplacian of Gaussian. Second, pixels with an intensity >2 standard deviations of the local noise were defined as potential BC. The local noise was determined from the local intensity minimums in at least one of 4 discrete directions. Third, along the line of the local maximum intensity direction of a BC, pixels that co-localized with sharp intensity transitions between the cytoplasm and sinusoids were excluded from the BC compartment. For all compartments (cytoplasm, BC and background), the mean intensity was calculated. To avoid mixing of compartments from light scattering of bright objects (BC to cytoplasm and cytoplasm to background), the area within the radius of 2 pixels from the object border was excluded from the calculation.
The transport of CF(DA) from the blood into and through the biliary network was described in a mathematical model that considers 3 hepatic compartments: the blood (s), hepatocytes cytoplasm (c) and bile canaliculi (b) (see FIG. 2F). Dye propagation through these three compartments was modelled for three spatially distinct zones within the liver lobule: The CV, MD and PV zone as defined in FIG. 2C. The different zone geometries of the kite-shaped CV-PV axis were accounted for by introducing respective geometry factors. The model considers that only a fraction of the injected CFDA is delivered to the liver, whereas the rest is cleared by other tissues at rate κclear. The injection of CFDA into the blood circulation is described by Pulse(t). It is defined by the time point of injection start (τ1) and the injection duration (τ2) assuming that CFDA is injected with constant rate in time t>τ1 and <τ1+τ2. Both τ1 and τ2 were fitted by the model with boundary intervals 40-80 sec (τ1) and 20-60 sec (τ2). In the liver, the model considers that CFDA is taken up from the blood with a permeability coefficient Perm=3 sec^−1 (according to (Breeuwer et al., 1995), considering a mammalian plasma membrane thickness of 4 nm), converted into CF by cytoplasmic esterases with cleavage rate κcleav and secreted by apical transporters with transporter activity κpump. To account for the spatial heterogeneity of esterase and transporter levels within the CV-PV axis, the amounts of both esterases (qi) and apical transporters (q1i) were determined for each zone (i=cv, md, pv). The model further considers passive back flux of CF from the BC into the hepatocyte cytoplasm at rate κli. The bile canaliculi compartment of the three zones is connected, occurs unidirectional and sequential from the CV to the MD with transport rate
Bile flow velocity vi at the interfaces of the lobule zones was estimated from the volume flux rates
considering the size of the zone volumes V and zone boundaries Ai (i=cv, md, pv) as well as a CV-PV axis distance L of 229 μm: […]

[4] = mouse, in vivo, iv
Method: Mouse anaesthesia was induced with 3-4% isoflurane/0.3% oxygen and maintained by i.p. injection of ketamine/xylazine throughout the experiment. Mice received 20 U of heparin dissolved in 0.9% (w/v) NaCl by i.p. injection to prevent ischemia of the liver during the course of imaging. To visualize hepatocyte nuclei, Hoechst 33258 dissolved in 0.9% (w/v) NaCl was administered retro-orbitally at a dose of 2 mg/kg and in a total volume of 50 μl. To expose the liver for imaging, the abdominal fur was removed using an electric shaver and a small transversal incision of 1 cm was made at the height of the sternum to expose the left lateral liver lobe using a surgical scissor and cauterizer. The mouse was positioned on the stage of an IX81 inverted confocal microscope equipped with a Fluoview 1000 scanning head (Olympus America) and a heat-adjustable UPLSAPO30X, 30×1.05 NA silicon oil objective (Olympus). The objective was heated to 37° C. To avoid compression of the liver lobe and to stabilize the tissue, the stage was designed with a small hole in the center into which the left lateral lobe was carefully placed. The residual volume of the hole was filled with a water based and transparent 1% carbomer gel (0.3 M Sorbitol, 1% (w/v) Carbomer 940, polymerized by addition of triethanolamine and adjusted to pH 7) to immobilize the organ and prevent the organ from drying out. The bottom of the hole was designed with a coverslide through which the organ was accessible for imaging. The animal body temperature was kept at 37° C. using a red lamp. Prior to imaging start, 18 mg/kg of 70 kDa Rhodaminedextran or 20 μl of Qtracker 655 vascular label dissolved in 0.9% (w/v) NaCl was injected retro-orbitally to identify the lobule orientation from the vascular flow pattern. To monitor the flux of CFDA in the liver, CFDA, dissolved in dimethyl sulfoxide (DMSO), was injected retro-orbitally at a dose of 0.2 mg/kg in a total volume of 50 μl. CFDA injection was performed slowly (approx. 30 sec) to avoid hydrodynamic effects and performed at 1 min after image acquisition start. […]

[5] = according to Breeuwer et al., 1995, considering a plasma membrane thickness of 4 nm; cited from earlier work
[6] = test system: phosphorylated myosin light chain (pMLC); assay: Western blot of phosphorylated myosin light chain in liver tissue of treated mice; type: in vivo; details: 20 mg/kg Fasudil for 1.5 h, mouse liver
Method: As controls, mice were administered 0.9% saline. […] Cell debris were removed by centrifugation for 10 min at 12 000×g at 4° C. and protein was denatured at 95° C. in presence of 100 mM dithiothreitol (DTT). A total of 10 μg protein was separated by sodium dodecyl sulfate polyacrylamide gel electrophoresis, and transferred onto a nitrocellulose membrane. Membranes were blocked and incubated with primary antibodies against glyceraldehyde 3-phosphate dehydrogenase (GAPDH, 1:2000) or phospho-myosin light chain (pMLC, 1:500) and HRP-conjugated secondary antibodies (1:10000) in 5% dry-milk, 10 mM Tris-HCl pH 8.0, 200 mM NaCl, 0.1% Tween20. Protein was detected using the enhanced chemiluminescence (ECL) detection kit (GE Healthcare, Buckinghamshire, UK) and chemiluminescence films (GE Healthcare, Buckinghamshire, UK) according to manufacturer's instructions. Plasma membrane contractility is determined by the cortical acto-myosin system ([…] et al., 2016; Tsukada and Phillips, 1993). […] Consequently, inhibition of acto-myosin contractility should affect biliary fluid dynamics. […] We next analyzed the BC network geometry on fixed liver tissue sections and found a dilation of BC in Fasudil-treated mice (FIG. 5B).

[7] = APAP 150 mg/kg i.p., 2 h, IVM of CF(DA) transport

## CC(=O)Nc1ccc(O)cc1 [APAP, acetaminophen]
[1]
  maximum reported sub-toxic dose: 150 mg/kg
[2]; APAP 150 mg/kg i.p., 2 h, immersion fixed, CV zone, pvalue<0.01
  dilation of BC, CV zone: up to 20%
[2]; APAP 150 mg/kg i.p., 2 h, immersion fixed, MD zone, pvalue<0.0001
  dilation of BC, MD zone: ≤ 18%
[3]; [7]
  bile velocity in the peri-portal zone: remained almost unaffected
  measured increase in bile velocity in the CV and MD zones: 1.4-1.6 fold
[3]; APAP treatment
  effects on osmolite secretion: marginal

## O=C(O)c1ccc2c(c1)C1(OC2=O)c2ccc(O)cc2Oc2cc(O)ccc21 [CF, 6-carboxyfluorescein]
[4]
  time until cleared from the system: ~40 min
  time until visible in the BC network: 3 to 5 min

## CC(=O)Oc1ccc2c(c1)Oc1cc(OC(C)=O)ccc1C21OC(=O)c2ccc(C(=O)O)cc21 [CFDA, 6-carboxyfluorecein-diacetate]
[5]
  permeability coefficient Perm for uptake from the blood: 3 s⁻¹
[4]
  time until detectable in the hepatocyte cytoplasm: within seconds

## O=S(=O)(c1cccc2cnccc12)N1CCCNCC1 [Fasudil]
[6]
  phosphorylated myosin light chain (pMLC) protein levels: reduction
[2]; Fasudil 20 mg/kg i.p., 1.5 h, MD zone, pvalue<0.0001
  BC radius increase as compared to control mice, MD zone: up to 12%
[2]; Fasudil 20 mg/kg i.p., 1.5 h, PV zone, pvalue<0.001
  BC radius increase as compared to control mice, PV zone: ≤ 7%
[2]; Fasudil-treated mice, apparent radius at portal outlet
  extrapolated BC radius at x=L, at(L): 1.422 μm
[3]; Fasudil 20 mg/kg i.p., 1.5 h, IVM of CF(DA) transport
  reduction of bile velocity across the CV-PV axis as compared to control mice: 50-58%
[3]; Fasudil-treated mice, IVM
  apical CF transport: reduction
[3]; Fasudil-treated, t=500 sec
  apical secretion fluxes summed over the entire CV-PV axis, Jt: 0.0390 arbitrary intensity units per time
[3]; Fasudil-treated, t=500 sec, CV zone
  apical secretion flux of CF, CV zone: 0.0019 arbitrary intensity units per time
[3]; Fasudil-treated, t=500 sec, MD zone
  apical secretion flux of CF, MD zone: 0.0312 arbitrary intensity units per time
[3]; Fasudil-treated, t=500 sec, PV zone
  apical secretion flux of CF, PV zone: 0.0059 arbitrary intensity units per time
